The target in series [1] is T1, human CB2 (hCB2) receptor (Homo sapiens, UniProt P34972).
T1 construct: expressed in transfected cells; host or cells: CHO (Chinese hamster ovary) cells, membranes
Description: CB2 binding assay, competitive binding of [3H]WIN 55212-2. A digest of the protocol:
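CHO cell membranes expressing hCB2 (15 μg protein) incubated 120 min at 37° C with 0.8 nM [3H]WIN 55212-2 in 50 mM HEPES/Tris pH 7.4, 5 mM MgCl2, 2.5 mM EGTA, 0.1% BSA; nonspecific binding with 10 μM WIN 55212-2. Filtration and scintillation counting; compounds at 1 μM, reported as % inhibition of control specific binding.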

The test system of series [2] is tactile allodynia in a spinal nerve ligation neuropathic pain model. Nature of the series: Lumbar 5/6 spinal nerve ligation neuropathic pain model, mechanical paw withdrawal threshold (von Frey). Format: in vivo, rat. The source says: Neuropathic pain was induced following the methods of Kim and Chung. Kim S H, Chung J M. An experimental model for peripheral neuropathy produced by segmental spinal nerve ligation in the rat. Pain 1992; 50:355-63. Rats were anesthetized and placed prone under a microsurgical apparatus. A midline incision was made on the back, and the right paraspinal muscles were separated from the spinous processes at the L4-S2 levels. The L6 transverse process was carefully removed, and the L4/5 spinal nerves were identified. The L5 nerve was tightly ligated with a 6-0 silk suture. The right L6 spinal nerve was then located just caudal and medial to the sacroiliac junction and tightly ligated with a silk suture.
Two weeks later after spinal nerve ligation, Intrathecal catheters (PE-10 tubing) was inserted into the rats while they were anesthetized with isoflurane, as described by Yaksh and Rudy. Yaksh T L, Rudy T A. Chronic catheterization of the spinal subarachnoid space. Physiology & Behavior 1976; 17:1031-6. A midline incision was made on the back of the neck. The muscle was freed at the attachment to the skull exposing the cisternal membrane. The membrane was opened with a stab blade and an 8.5 cm polyethylene (PE-10) catheter was then inserted through the cisternal opening, and passed carefully and caudally into the intrathecal space at the L1-L3 spinal segments. The end of the catheter was tunneled through the subcutaneous space over the frontal bones, flushed with 10 μl saline, and then plugged with a short length of wire Animal testing was performed 5-7 days after intrathecal catheter placement.
To assess mechanical allodynia, the mechanical paw withdrawal threshold was measured with a series of von Frey hairs (range 0.4-15 g). Rats were placed in elevated Perspex enclosures (28 cm×15 cm×18 cm) with wire mesh bases and given 15-20 min to acclimatize to the testing environment. Rats will be allowed to acclimatize for 30 min in a clear plastic cage with a wire mesh bottom. The calibrated von Frey filament fibers were applied to the hindpaw briefly for 6 seconds to determine the paw withdrawal threshold before and after drug injection (intraperitoneally or intrathecally). A series of von Frey filaments with exponentially incremental stiffness (0.4, 0.7, 1.2, 2.0, 3.6, 5.5, 8.5 and 15 g) were used to measure the 50% threshold for hindpaw withdrawal in awake, unrestrained rats. Chaplan S R, Bach F W, Pogrel J W, Chung J M, Yaksh T L. Quantitative assessment of tactile allodynia in the rat paw. Journal of Neuroscience Methods 1994; 53:55-63. Brisk paw withdrawal from the pressure of a filament gently bent against the plantar paw was defined as a positive response, and absence of withdrawal within 6 s as a negative response. Filaments were touched to the hindpaw in sequential ascending or descending order until the threshold of response is crossed (allowing about 10 s between each increment of the von Frey filaments). Each time the threshold is crossed, the direction of stimulus presentation was reversed and the procedure will be resumed. Four responses were collected after the first threshold detection, and the 50% withdrawal thresholds were interpolated. In cases where response thresholds fell outside the range of detection, 15.00 and 0.25 g were, respectively, assigned for continuous negative or positive responses to the limit of stimuli.
All surgical procedures were performed under deep isoflurane anesthesia in 100% O2. The spinal nerve ligation (SNL) was performed as described previously. Kim, S. H., et al., An Experimental Model for Peripheral Neuropathy Produced by Segmental Spinal Nerve Ligation in the Rat, Pain, 1992, 50:355-63. Briefly, a midline incision above the lumbar spine exposed the left L6 transverse process. The process was then removed, the left L5 and L6 spinal nerves were isolated, and both nerves were tightly ligated with 6-0 silk. […]

Molecules are shown by their SMILES.

T1 sequence (P34972 whole entry): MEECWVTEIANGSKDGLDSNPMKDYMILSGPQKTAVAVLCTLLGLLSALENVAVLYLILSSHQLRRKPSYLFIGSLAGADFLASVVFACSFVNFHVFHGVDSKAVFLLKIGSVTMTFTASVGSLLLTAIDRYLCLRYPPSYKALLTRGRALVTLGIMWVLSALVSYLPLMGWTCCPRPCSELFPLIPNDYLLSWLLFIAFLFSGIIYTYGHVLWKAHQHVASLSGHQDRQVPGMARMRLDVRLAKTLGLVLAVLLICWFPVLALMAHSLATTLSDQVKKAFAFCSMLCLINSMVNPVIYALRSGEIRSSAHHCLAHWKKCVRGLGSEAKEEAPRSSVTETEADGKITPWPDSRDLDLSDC

With `CCCCCCN1C(=O)/C(=N\NC(=O)c2ccccc2)c2ccccc21` [Example 6, Benzoic acid [1-n-hexyl-2-oxo-1,2-dihydro-indol-3-ylidene]-hydrazide], the “% Inhibition of Control Specific Binding” value in series [1] (CB2, Test Concentration 1.0E−05 (MD)) is 93%. Moreover, in series [1] (CB2, Test Concentration 1.0E−05 (MD), 1st determination), the “% of Control Specific Binding 1st” value was −1.5%. For the same molecule, the “% of Control Specific Binding 2nd” value in series [1] (CB2, Test Concentration 1.0E−05 (MD), 2nd determination) is reported as 15.9%. Moreover, the “% of Control Specific Binding Mean” value in series [1] (CB2, Test Concentration 1.0E−05 (MD), mean) came to 7.2%. In series [1] (Table 4, concentration not given), the “% Inhibition of Control Specific Binding CB2” value is 93%. In addition, the inhibition at 1 µM in series [1] (read-out: % inhibition hCB2 receptor, at 1 μM, specific binding of [3H]-WIN55212-2, CHO membranes) was 92.8 ± 8.7%. For the same molecule, in series [1] (read-out: % inhibition hCB2 receptor, at 10 μM, specific binding of [3H]-WIN55212-2), the inhibition at 10 µM came to 92.8 ± 8.7%. In addition, in series [2] (IP 30 mg/kg, rats), the “duration of peak threshold” value is given as “one”, the “peak paw withdrawal threshold” value is listed as 15 g and the “time of peak effect following administration” value was not above 5 min. The “effect on mechanical paw withdrawal threshold” value in series [2] (IP administration of 30 mg/kg in 0.5 ml, rats) was “produced an increase in mechanical paw withdrawal threshold”. The ED50 in series [2] (Rattus norvegicus, ip, rats, spinal nerve ligation, 95% CI, read-out: ED50 of the anti-allodynic effect) amounted to 5.9 mg/kg. Further, in series [2] (i.p., rats, spinal nerve ligation, 95% CI), the “ED90 of the anti-allodynic effect” value was 12 (95% CI 9.6-15.5) mg/kg. For the same molecule, the “effect on paw withdrawal threshold” value in series [2] (intrathecal (IT) administration, at 5 min, rats) is given as “short-lived modest increase in paw withdrawal threshold”. Besides, the “behavioral abnormalities or side effects” value in series [2] (rats of the nerve-ligation study) is “No behavioral abnormalities or side effects were noted”.

Broadly, the inhibition is the percentage by which the read-out fell short of the control. In general, ED50 refers to the midpoint of the dose-response relation.
